Earlier results, collected in patent US7855190B2, “Methods of hormonal treatment utilizing contraceptive regimens with continuous estrogen administration” (Teva Women's Health, Inc., priority 2003, dated 2010).

Conditions: relative potency of estrogens

| Compound | amount roughly equivalent to 30 μg of ethinyl estradiol |
| --- | --- |
| C[C@]12CC[C@@H]3c4ccc(O)cc4CC[C@H]3[C@@H]1CC[C@@H]2O [17β-estradiol] | ~2,000 μg |
| C#C[C@]1(O)CC[C@H]2[C@@H]3CCc4cc(OC)ccc4[C@H]3CC[C@@]21C [mestranol] | ~60 µg |

Same assay, conditions: relative potency of progestins

| Compound | amount equivalent to 0.050 mg of levonorgestrel |
| --- | --- |
| C#CC1(O)CC[C@H]2[C@@H]3CCC4=CC(=O)CC[C@@H]4[C@H]3CC[C@@]21CC (mixture of isomers) [norgestrel] | about 0.100 mg |
| C#C[C@]1(O)C=C[C@H]2[C@@H]3CCC4=CC(=O)CC[C@@H]4[C@H]3CC[C@@]21CC [gestodene] | about 0.035 mg |
| C#C[C@]1(O)CC[C@H]2[C@@H]3CCC4=CC(=O)CC[C@@H]4[C@H]3C(=C)C[C@@]21CC [3-ketodesogestrel] | about 0.050 mg |
| C#C[C@]1(O)CC[C@H]2[C@@H]3CCC4=CCCC[C@@H]4[C@H]3C(=C)C[C@@]21CC [desogestrel] | about 0.050 mg |
| C#C[C@]1(OC(C)=O)CC[C@H]2[C@@H]3CCC4=CC(=O)CC[C@@H]4[C@H]3CC[C@@]21C [norethindrone acetate] | about 0.175 mg |
